From patent US9877981B2, “NAD biosynthesis and precursors for the treatment and prevention of cancer and proliferation” (President and Fellows of Harvard College, priority 2012, dated 2018)

Experiments:
Format in all cases: cell-based, mouse
C2C12 myoblasts = assay: mtDNA content and ETC gene expression in C2C12 myoblasts; conditions: C2C12 cells; 10 μM EX-527 for 12 h
Description: C2C12 cell line (ATCC) was cultured in low glucose Dulbecco's modified eagle medium (DMEM) (Invitrogen) supplemented with 10% FBS (Invitrogen) and a mix of antibiotic and antimycotic (Invitrogen). To inhibit SIRT1, cells were treated the vehicle (0.001% DMSO) or 10 μM EX-527 (Tocris) for 12 h. C2C12 myoblasts were infected with an empty or SIRT1 adenovirus as described before (Gerhart-Hines et al., 2007) and the media was replaced with fresh DMEM for additional 48 h, after that the cells were treated as described before. To test the effects of hypoxia and HIFα stabilization in genome asyncrony, C2C12 myoblasts were exposed to 1% oxygen for 16 h or treated with the vehicle (0.001% DMSO) or DMOG (Cayman) for the same period of time.
(§1) RNA from skeletal muscle tissue and C2C12 cells were extracted with RNeasy mini kit (Qiagen) according to the instructions and quantified using the NanoDrop 1000 spectrophotometer (Thermo Scientific). cDNA was synthesized with the iSCRIP cDNA synthesis kit (BioRad) using 600 ng of RNA. Quantitative RT-PCR reactions were performed using 1 μM of primers and LightCycler® 480 SYBR Green Master (Roche) on an LightCycler® 480 detection system (Roche). Calculations were performed by a comparative method (2-ΔCT) using 18S as an internal control. For mtDNA analysis, total DNA was extracted with DNeasy blood and tissue kit (Qiagen). mtDNA was amplified using primers specific for the mitochondrial cytochrome c oxidase subunit 2 (COX2) gene and normalized to genomic DNA by amplification of the ribosomal protein s18 (rps18) nuclear gene. Primers were designed using the IDT software (IDT) and the primer sequences can be found in Table 1.

PGC-1α/β KO myotubes = assay: qPCR of ETC genes in PGC-1α/β KO myotubes; conditions: for expression of nuclear- and mitochondrial-encoded genes: EX-527 48 h
Description: (§2) Primary myoblasts cells were isolated from WT, SIRT1 KO (Price et al., 2012) and PGC-1α/β KO (Zechner et al., 2010) mice as previously described (Price et al., 2012). WT and PGC-1α/β KO primary myoblasts were plated and allowed to differentiate into myotubes by replacing the media with low glucose DMEM supplemented with 2% horse serum (Sigma-Aldrich) for 4 days. After the differentiation the cells were infected with empty vector or flag-SIRT1 adenovirus as described before (Gerhart-Hines et al., 2007). Media was replaced with fresh DMEM supplemented with 2% horse serum (Sigma-Aldrich) for an additional 48 hr and, after that the cells were harvested for the different assays as described. To investigate the role of HIF-1α in genome asynchrony, PGC-1α/β KO primary myotubes were treated for 12 hours with 1 mM DMOG (Sigma) or 10 μM DFO (Sigma), 24 h after infection with empty vector of flag-SIRT1 adenovirus or after 12 h treatment with 500 mM NMN (Sigma).
as §1

NAD+/NADH = NAD+/NADH ratio in primary myoblasts treated with pyruvate or lactate; conditions: primary WT myoblasts; 10 mM lactate 24 h
Description: as §2

HIF-1α = assay: Immunoblot of HIF-1α in primary WT myoblasts; conditions: 10 mM lactate 24 h
Description: as §2, with “To investigate the role of HIF-1α in genome asynchrony, PGC-1α/β KO primary myotubes were treated for 12 hours with 1 mM DMOG (Sigma) or 10 μM DFO (Sigma), 24 h after infection with empty vector of flag-SIRT1 adenovirus or after 12 h treatment with 500 mM NMN (Sigma).” left out
Protein extracts from tissue or C2C12 cells were obtained by lysis in ice-cold lysis buffer (150 mM NaCl, 10 mM Tris HCl (pH 7.4), 1 mM EDTA, 1 mM EGTA, 1% Triton X-100, 0.5% NP-40) supplemented with a cocktail of protease and phosphatase inhibitors (Roche). Protein content was determined by the Bradford protein assay (Biorad), and 50 μg proteins were run on SDS-PAGE under reducing conditions. […] The immunostaining was detected using horseradish peroxidase-conjugated anti-rabbit or anti-mouse immunoglobulin for 1 h at room temperature.

SMILES: NC(=O)C1CCCc2c1[nH]c1ccc(Cl)cc21 (stereo not shown) [EX-527]
- genome asynchrony (C2C12 myoblasts): Genome asynchrony was induced
- expression of nuclear- and mitochondrial-encoded genes (PGC-1α/β KO myotubes; PGC-1α/β KO myotubes reconstituted with PGC-1α T177A/S538A mutant): only the mitochondrial-encoded genes decreased
- expression of nuclear- and mitochondrial-encoded genes (PGC-1α/β KO myotubes; PGC-1α/β KO myotubes reconstituted with WT PGC-1α): decreased both nuclear- and mitochondrial-encoded genes

SMILES: CC(O)C(=O)O (stereo not shown) [lactate]
- NAD+/NADH ratio (NAD+/NADH): decreasing NAD^+/NADH ratio
- HIF-1α protein stabilization (HIF-1α): induces HIF-1α protein stabilization

SMILES: CC(=O)N(O)CCCCCNC(=O)CCC(=O)N(O)CCCCCNC(=O)CCC(=O)N(O)CCCCCN [DFO, desferrioxamine]
- effect on NMN-induced expression of mitochondrially-encoded ETC genes (PGC-1α/β KO myotubes; PGC-1α/β KO myotubes, NMN plus 1 mM DMOG or 10 μM DFO, 12 hours): completely abolished
- effect on induction of mitochondrial ETC genes by SIRT1 overexpression (PGC-1α/β KO myotubes; PGC-1α/β knockout myotubes with SIRT1 adenovirus, 1 mM DMOG or 10 μM DFO): completely blocked
